Here are results for 44 compounds from patent US12540141B2, “Spiropyrrolidine derived antiviral agents” (priority 2020, dated 2026).

A word on the pIC50: it is −log10 of the IC50, conventionally taken in molar units. Low readings indicate a high IC50, high ones a low IC50. A word on the pEC50: it is the EC50 on a negative log10 scale, so that one unit is a factor of ten.

The structures appear in SMILES notation. pEC50, pIC50: −log10 of the molar value.

In the first assay the target is SARS-CoV-2 3CL-protease (Severe acute respiratory syndrome coronavirus 2, UniProt P0DTD1). In words: SARS-CoV-2 3C-Like (3CL) Protease Fluorescence Assay (FRET). It is filed as biochemical. As to conditions: SARS-CoV-2 3CL-protease 10 nM, 30 min preincubation at RT, substrate 40 μM.
`CC(C)C[C@@H](C(=O)N1C[C@]2(C[C@H]1C#N)C(=O)Nc1ccccc12)N(C)C(=O)c1ccc2ccc(Br)cc2c1` [Example 230] gave a pIC50 of 6.00 to 7.00.

As for `CN(C(=O)[C@@H](O)c1ccc(F)cc1)[C@@H](CC1CC1)C(=O)N1C[C@]2(C[C@H]1C#N)C(=O)Nc1ccccc12` [Example 414, (S)—N—((S)-1-((3R,5′S)-5′-cyano-2-oxospiro[indoline-3,3′-pyrrolidin]-1′-yl)-3-cyclopropyl-1-oxopropan-2-yl)-2-(4-fluorophenyl)-2-hydroxy-N-methyl acetamide], the pIC50 was > 7.00.

Consider `COc1cc(Cl)cc(C(=O)N(C)[C@@H](CC(C)C)C(=O)N2C[C@]3(C[C@H]2C#N)C(=O)Nc2ccccc23)c1` [Example 180], for which the negative-log IC50 (pIC50) is > 7.00.

As for `CN(C(=O)[C@H](O)c1ccc(F)cc1)[C@@H](CC1CC1)C(=O)N1C[C@]2(C[C@H]1C#N)C(=O)Nc1ccccc12` [Example 415], the pIC50 is > 7.00.

On to `CC(C)C[C@@H](C(=O)N1C[C@]2(C[C@H]1C#N)C(=O)Nc1ccccc12)N(C)C(=O)c1cc(OC2CC2)c2c(c1)=NC(C1CC1)N=2` (stereo partly shown) [Example 307], for which the pIC50 is 6.00 to 7.00.

In the case of `CC(C)C[C@@H](C(=O)N1C[C@]2(C[C@H]1C#N)C(=O)Nc1ccccc12)N(C)C(=O)c1ccc(-c2ccccc2)cn1` [Example 232], the pIC50 was 6.00 to 7.00.

On to `COc1cc(C(=O)N(C)[C@@H](CC(C)C)C(=O)N2C[C@]3(C[C@H]2C#N)C(=O)Nc2ccccc23)cc2c1=NC(C1CC1)N=2` (stereo partly shown) [Example 308], for which the pIC50 was > 7.00.

For `[2H]C([2H])([2H])N(C(=O)[C@H](O)c1ccc(F)cc1)[C@@H](CC1CC1)C(=O)N1C[C@]2(C[C@H]1C#N)C(=O)Nc1ccccc12` [Example 422], the pIC50 was > 7.00.

Regarding `CC(C)C[C@@H](C(=O)N1C[C@]2(C[C@H]1C#N)C(=O)Nc1ccccc12)N(C)C(=O)c1cn(-c2cccc(Cl)c2)nn1` [Example 286], the pIC50 is > 7.00.

Consider `CC(C)C[C@@H](C(=O)N1C[C@]2(C[C@H]1C#N)C(=O)Nc1ccccc12)N(C)C(=O)Cc1ccccc1` [Example 226], for which the pIC50 was > 7.00.

Regarding `CC(C)C[C@@H](C(=O)N1C[C@]2(C[C@H]1C=O)C(=O)Nc1ccccc12)N(C)C(=O)c1cc2c(F)cc(F)c(F)c2[nH]1` [Example 150], the pIC50 is > 7.00.

`CC(C)C[C@@H](C(=O)N1C[C@]2(C[C@H]1C#N)C(=O)Nc1ccccc12)N(C)C(=O)c1ccc(Cl)c(F)c1F` [Example 175]: the pIC50 was > 7.00.

As to `CC(C)C[C@@H](C(=O)N1C[C@]2(C[C@H]1C#N)C(=O)Nc1ccc(-c3ccn(C(F)F)n3)cc12)N(C)C(=O)c1cc2c(F)cc(F)cc2[nH]1` [Example 514], the pIC50 was > 7.00.

For the compound `CCC[C@@H](C(=O)N1C[C@]2(C[C@H]1C#N)C(=O)Nc1ccccc12)N(C)C(=O)c1cc2c(F)cc(F)cc2[nH]1` [Example 386], the pIC50 was > 7.00.

As to `CC(C)C[C@@H](C(=O)N1C[C@]2(C[C@H]1C(O)S(=O)(=O)O)C(=O)Nc1ccccc12)N(C)C(=O)c1cc2c(F)cc(F)cc2[nH]1` (stereo partly shown) [Example 153], the pIC50 was > 7.00.

Take `CC(C)C[C@H](NC(=O)c1ccc(-c2ccccc2)[nH]1)C(=O)N1C[C@]2(C[C@H]1C#N)C(=O)Nc1ccccc12` [Example 151]: the pIC50 was < 6.00.

As for `CC(C)C[C@@H](C(=O)N1C[C@]2(C[C@H]1C#N)C(=O)Nc1ccccc12)N(C)C(=O)/C=C/c1ccccc1` [Example 228], the pIC50 was > 7.00.

For the compound `Cc1cc2cc(C(=O)N(C)[C@@H](CC(C)C)C(=O)N3C[C@]4(C[C@H]3C#N)C(=O)Nc3ccccc34)cc(OC(F)(F)F)c2nc1C` [Example 238], the pIC50 is > 7.00.

Turning to `C[C@@H]1CCC[C@H](C)N1CCC(=O)N(C)[C@@H](CC(C)(C)F)C(=O)N1C[C@]2(C[C@H]1C#N)C(=O)Nc1ccccc12` [Example 545], the pIC50 was > 7.00.

Turning to `CN(C(=O)Cc1cnccn1)[C@@H](CC(C)(C)F)C(=O)N1C[C@]2(C[C@H]1C#N)C(=O)Nc1ccc(Cl)cc12` [Example 484], the pIC50 was > 7.00.

With `CN(C(=O)c1cn(C(C)(C)C)nn1)[C@@H](Cc1ccccc1)C(=O)N1C[C@]2(C[C@H]1C#N)C(=O)Nc1ccccc12` [Example 363], the pIC50 is > 7.00.

On to `CC(C)C[C@@H](C(=O)N1C[C@]2(C[C@H]1C#N)C(=O)Nc1ccc(-c3ccncc3)cc12)N(C)C(=O)c1cc2c(F)cc(F)cc2[nH]1` [Example 510], for which the pIC50 was > 7.00.

On to `CC(C)(F)C[C@H](NC(=O)c1cccc(OC(F)(F)F)c1)C(=O)N1C[C@]2(C[C@H]1C#N)C(=O)Nc1ccc(Cl)cc12` [Example 447], for which the pIC50 was > 7.00.

`CC(C)C[C@@H](C(=O)N1C[C@]2(C[C@H]1C#N)C(=O)Nc1ccccc12)N(C)C(=O)c1cc2cccc(F)c2[nH]1` [Example 325]: the pIC50 is > 7.00.

For `CN(C(=O)c1cc2c(F)cc(F)cc2[nH]1)[C@@H](COC(C)(C)C)C(=O)N1C[C@]2(C[C@H]1C#N)C(=O)Nc1ccccc12` [Example 371], the pIC50 is > 7.00.

Consider `CN(C(=O)c1cc2cccnc2[nH]1)[C@@H](CC1CC1)C(=O)N1C[C@]2(C[C@H]1C#N)C(=O)Nc1ccc(Cl)cc12` [Example 459], for which the pIC50 was > 7.00.

The compound `CC(C)C[C@@H](C(=O)N1C[C@]2(C[C@H]1C#N)C(=O)Nc1ccccc12)N(C)C(=O)c1ccc(Cl)cc1` [Example 163] gave a pIC50 of 6.00 to 7.00.

Regarding `CC(C)C[C@@H](C(=O)N1C[C@]2(C[C@H]1C#N)C(=O)Nc1ccccc12)N(C)C(=O)c1cccc(-c2cccc(C#N)c2)c1` [Example 279], the pIC50 is 6.00 to 7.00.

On to `CC(C)C[C@@H](C(=O)N1C[C@]2(C[C@H]1C(O)S(=O)(=O)O)C(=O)Nc1ccccc12)N(C)C(=O)c1cc2c(F)cc(F)c(F)c2[nH]1` (stereo partly shown) [Example 154], for which the pIC50 is > 7.00.

With `[2H]C([2H])([2H])N(C(=O)c1cn(C2CC2)nn1)[C@@H](CC(C)(C)C)C(=O)N1C[C@]2(C[C@H]1C#N)C(=O)Nc1ccccc12` [Example 378], the pIC50 is > 7.00.

As to `CN(C(=O)Cc1ccncc1)[C@@H](CC(C)(C)F)C(=O)N1C[C@]2(C[C@H]1C#N)C(=O)Nc1ccc(Cl)cc12` [Example 477], the pIC50 is > 7.00.

In the case of `CC(=O)c1ccc2c(c1)[C@@]1(C[C@@H](C#N)N(C(=O)[C@H](CC(C)C)N(C)C(=O)c3cc4c(F)cc(F)cc4[nH]3)C1)C(=O)N2` [Example 499], the pIC50 was > 7.00.

As for `CN(C(=O)[C@H](O)c1ccccc1Cl)[C@@H](CC1CC1)C(=O)N1C[C@]2(C[C@H]1C#N)C(=O)Nc1ccccc12` [Example 426], the pIC50 is > 7.00.

`CC(C)C[C@@H](C(=O)N1C[C@]2(C[C@H]1C#N)C(=O)Nc1ccccc12)N(C)C(=O)c1ccncc1` [Example 194] had a pIC50 of 6.00 to 7.00.

Consider `CC(C)C[C@@H](C(=O)N1C[C@]2(C[C@H]1C#N)C(=O)Nc1ccccc12)N(C)C(=O)c1ccc(F)c(F)c1` [Example 178], for which the pIC50 is > 7.00.

For `CC(C)C[C@@H](C(=O)N1C[C@]2(C[C@H]1C#N)C(=O)Nc1ccccc12)N(C)C(=O)c1ccc2cnccc2c1` [Example 216], the pIC50 is > 7.00.

Take `C[C@@H](CC(=O)N[C@@H](CC(C)(C)C)C(=O)N1C[C@]2(C[C@H]1C#N)C(=O)Nc1ccccc12)NC(=O)OCc1ccccc1` [Example 130]: the pIC50 was 6.00 to 7.00.

On to `CC(C)(F)C[C@H](NC(=O)c1cc2ccccn2n1)C(=O)N1C[C@]2(C[C@H]1C#N)C(=O)Nc1ccc(Cl)cc12` [Example 446], for which the pIC50 is 6.00 to 7.00.

Consider `CC(C)C[C@@H](C(=O)N1C[C@]2(C[C@H]1C#N)C(=O)Nc1ccc(S(C)(=O)=O)cc12)N(C)C(=O)c1cc2c(F)cc(F)cc2[nH]1` [Example 500, N—((S)-1-((3R,5′S)-5′-cyano-5-(methylsulfonyl)-2-oxospiro[indoline-3,3′-pyrrolidin]-1′-yl)-4-methyl-1-oxopentan-2-yl)-4,6-difluoro-N-methyl-1H-indole-2-carboxamide], for which the pIC50 is > 7.00.

Consider `Cc1c(C(=O)N[C@@H](CC2CC2)C(=O)N2C[C@]3(C[C@H]2C#N)C(=O)Nc2ccc(F)cc23)sc2cccc(F)c12` [Example 521], for which the pIC50 was > 7.00.

For `CN(C(=O)c1cnn(C2CCCCC2)c1)[C@@H](CC1CC1)C(=O)N1C[C@]2(C[C@H]1C#N)C(=O)Nc1ccccc12` [Example 411], the pIC50 was > 7.00.

Consider `CC(C)C[C@@H](C(=O)N1C[C@]2(C[C@H]1C#N)C(=O)Nc1ccccc12)N(C)C(=O)c1cc2ccccc2o1` [Example 208], for which the pIC50 is > 7.00.

The test system of another assay is 229E human corona virus (hCoV). Briefly: 229E Live Virus Assay (MRC-5 cells, CPE read by ATPlite). It is filed as cell-based, hCoV-229E.
Details: not given
A general note: In ATP-based viability assays light output follows the ATP content of the culture.
On to `C[C@H](OC(=O)N[C@@H](CC(C)(C)C)C(=O)N1C[C@]2(C[C@H]1C#N)C(=O)Nc1ccc(Cl)cc12)c1ccc(F)cc1` [Example 494], for which the pEC50 was 6.00 to 7.00.

The same assay, now with this note: Human coronavirus 229E, MRC5; hCoV-229E live virus in MRC-5 cells, MOI 0.05, CPE by ATPlite; run in duplicate.
As to `CC(C)C[C@@H](C(=O)N1C[C@]2(C[C@H]1C#N)C(=O)Nc1ccccc12)N(C)C(=O)c1ccc2ccc(Br)cc2c1` [Example 230], the pEC50 was > 7.00.

For `CN(C(=O)[C@@H](O)c1ccc(F)cc1)[C@@H](CC1CC1)C(=O)N1C[C@]2(C[C@H]1C#N)C(=O)Nc1ccccc12` [Example 414, (S)—N—((S)-1-((3R,5′S)-5′-cyano-2-oxospiro[indoline-3,3′-pyrrolidin]-1′-yl)-3-cyclopropyl-1-oxopropan-2-yl)-2-(4-fluorophenyl)-2-hydroxy-N-methyl acetamide], the pEC50 was > 7.00.

Turning to `COc1cc(Cl)cc(C(=O)N(C)[C@@H](CC(C)C)C(=O)N2C[C@]3(C[C@H]2C#N)C(=O)Nc2ccccc23)c1` [Example 180], the pEC50 is > 7.00.

Turning to `CN(C(=O)[C@H](O)c1ccc(F)cc1)[C@@H](CC1CC1)C(=O)N1C[C@]2(C[C@H]1C#N)C(=O)Nc1ccccc12` [Example 415], the pEC50 was > 7.00.

`CC(C)C[C@@H](C(=O)N1C[C@]2(C[C@H]1C#N)C(=O)Nc1ccccc12)N(C)C(=O)c1cc(OC2CC2)c2c(c1)=NC(C1CC1)N=2` (stereo partly shown) [Example 307] gave a pEC50 of 6.00 to 7.00.

`CC(C)C[C@@H](C(=O)N1C[C@]2(C[C@H]1C#N)C(=O)Nc1ccccc12)N(C)C(=O)c1ccc(-c2ccccc2)cn1` [Example 232]: the pEC50 was > 7.00.

As for `COc1cc(C(=O)N(C)[C@@H](CC(C)C)C(=O)N2C[C@]3(C[C@H]2C#N)C(=O)Nc2ccccc23)cc2c1=NC(C1CC1)N=2` (stereo partly shown) [Example 308], the pEC50 is 6.00 to 7.00.

Take `[2H]C([2H])([2H])N(C(=O)[C@H](O)c1ccc(F)cc1)[C@@H](CC1CC1)C(=O)N1C[C@]2(C[C@H]1C#N)C(=O)Nc1ccccc12` [Example 422]: the pEC50 is > 7.00.

Still in this assay, the particulars now being: hCoV-229E live virus in MRC-5 cells, MOI 0.05, CPE by ATPlite; run in duplicate.
Regarding `COc1cc(C(=O)N(C)[C@@H](CC(C)C)C(=O)N2C[C@]3(C[C@H]2C#N)C(=O)Nc2ccccc23)cn2cc(C(F)F)nc12` [Example 255], the pEC50 was > 7.00.
